Data published in patent US6846641B2, “In vitro ischemia model” (AGY Therapeutics, Inc., priority 2002, dated 2005).
Where a name gives a salt, the structure may show the parent alone.

How the values were obtained:
[1] = test system: CA1 region of mouse hippocampal organotypic tissue cultures; test: Oxygen and glucose deprivation (OGD) in iCSF, propidium iodide uptake in mouse hippocampal organotypic cultures; assay type: cell-based; settings: 24 hours of recovery
CA1 cells = settings: given after the ischemic insult; cited from earlier work

Row | SMILES | protective effect (damage in CA1 versus OGD-controls) ([1]; 150 μM, one hour before OGD, in iCSF during 15-minute OGD and throughout recovery) [%] | protective effect against 15-minute-OGD in iCSF (PI-intensity in the CA1-area) ([1]; 150 μM, p<0.0001, n=18-24) | protection of CA1 cells (CA1 cells) | less damage in the CA1 region compared to matched OGD-control cultures ([1]; 20 μM, pretreatment one hour before 15-minute OGD in iCSF) [%]
1 | N[C@H](CCCP(=O)(O)O)C(=O)O [D-AP5, D-2 amino-5-phosphonopentanoic-acid] | 70 | significant |  | 
2 | C[C@]12N[C@H](Cc3ccccc31)c1ccccc12 [MK-801, dizocilpine maleate] |  |  | protected CA1 cells | 90
